Calls of active or inactive are those of the source.
What was measured:
[1] = target: T1, Replicative DNA helicase DnaB (Mycobacterium tuberculosis, UniProt P9WMR3); experiment: DnaB intein splicing inhibitors, dose response, biochemical, cell-free fluorescence (AID 449749); assay type: functional
T1 sequence (P9WMR3 whole entry): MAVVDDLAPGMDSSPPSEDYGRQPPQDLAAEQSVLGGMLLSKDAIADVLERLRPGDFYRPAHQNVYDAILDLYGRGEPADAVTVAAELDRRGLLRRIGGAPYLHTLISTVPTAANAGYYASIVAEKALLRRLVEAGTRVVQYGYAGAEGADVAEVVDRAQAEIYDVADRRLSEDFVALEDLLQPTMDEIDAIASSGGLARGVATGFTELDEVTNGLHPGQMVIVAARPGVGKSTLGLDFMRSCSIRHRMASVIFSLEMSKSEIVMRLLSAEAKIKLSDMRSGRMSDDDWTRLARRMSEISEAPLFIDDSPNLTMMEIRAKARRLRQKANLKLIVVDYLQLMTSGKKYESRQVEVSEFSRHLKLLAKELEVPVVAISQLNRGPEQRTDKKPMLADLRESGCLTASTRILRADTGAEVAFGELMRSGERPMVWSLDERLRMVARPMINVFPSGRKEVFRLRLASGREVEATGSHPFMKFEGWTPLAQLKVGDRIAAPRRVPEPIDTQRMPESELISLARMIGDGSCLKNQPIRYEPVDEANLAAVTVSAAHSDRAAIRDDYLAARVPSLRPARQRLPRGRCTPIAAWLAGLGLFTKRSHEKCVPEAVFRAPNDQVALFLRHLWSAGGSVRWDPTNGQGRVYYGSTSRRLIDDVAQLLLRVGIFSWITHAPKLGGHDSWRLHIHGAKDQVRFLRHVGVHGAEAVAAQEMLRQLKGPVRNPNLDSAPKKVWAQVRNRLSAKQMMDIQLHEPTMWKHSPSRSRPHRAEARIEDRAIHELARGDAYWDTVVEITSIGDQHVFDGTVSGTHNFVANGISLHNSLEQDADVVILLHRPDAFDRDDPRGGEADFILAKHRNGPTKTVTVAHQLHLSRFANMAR

Protein RecA = target: T2, Protein RecA (Mycobacterium tuberculosis, UniProt P9WHJ3); experiment: Fluorescence Cell-Free Homogeneous Dose Retest to Identify Inhibitors of RecA-Intein Splicing Activity. [Related pubchem assays (depositor defined):AID2097, AID2223, AID489010, AID492950]; assay type: functional
T2 sequence (P9WHJ3 whole entry): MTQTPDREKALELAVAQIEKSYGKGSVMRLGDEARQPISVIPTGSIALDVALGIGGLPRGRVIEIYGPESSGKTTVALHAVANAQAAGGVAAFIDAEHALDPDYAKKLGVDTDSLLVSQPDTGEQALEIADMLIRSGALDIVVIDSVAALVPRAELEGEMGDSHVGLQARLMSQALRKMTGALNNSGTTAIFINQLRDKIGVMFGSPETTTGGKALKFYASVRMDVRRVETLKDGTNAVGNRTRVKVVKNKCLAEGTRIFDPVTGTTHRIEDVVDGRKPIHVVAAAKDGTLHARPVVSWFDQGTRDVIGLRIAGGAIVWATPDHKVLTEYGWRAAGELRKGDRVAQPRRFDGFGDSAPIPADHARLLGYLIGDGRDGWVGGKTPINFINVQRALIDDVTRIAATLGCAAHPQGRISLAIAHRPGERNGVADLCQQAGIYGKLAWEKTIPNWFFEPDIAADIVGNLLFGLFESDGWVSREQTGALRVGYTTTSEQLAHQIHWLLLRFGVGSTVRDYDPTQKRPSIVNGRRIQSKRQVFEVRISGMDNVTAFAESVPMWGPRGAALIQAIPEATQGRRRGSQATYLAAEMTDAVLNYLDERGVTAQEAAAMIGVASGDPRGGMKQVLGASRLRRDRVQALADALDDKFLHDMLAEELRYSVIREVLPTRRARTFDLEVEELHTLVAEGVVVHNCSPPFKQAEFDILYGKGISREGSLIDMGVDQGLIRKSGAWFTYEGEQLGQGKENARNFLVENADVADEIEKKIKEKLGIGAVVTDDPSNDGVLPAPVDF

Protein skinhead-1 = target: T3, Protein skinhead-1 (Caenorhabditis elegans, UniProt P34707); assay type: functional
T3 sequence (P34707 whole entry): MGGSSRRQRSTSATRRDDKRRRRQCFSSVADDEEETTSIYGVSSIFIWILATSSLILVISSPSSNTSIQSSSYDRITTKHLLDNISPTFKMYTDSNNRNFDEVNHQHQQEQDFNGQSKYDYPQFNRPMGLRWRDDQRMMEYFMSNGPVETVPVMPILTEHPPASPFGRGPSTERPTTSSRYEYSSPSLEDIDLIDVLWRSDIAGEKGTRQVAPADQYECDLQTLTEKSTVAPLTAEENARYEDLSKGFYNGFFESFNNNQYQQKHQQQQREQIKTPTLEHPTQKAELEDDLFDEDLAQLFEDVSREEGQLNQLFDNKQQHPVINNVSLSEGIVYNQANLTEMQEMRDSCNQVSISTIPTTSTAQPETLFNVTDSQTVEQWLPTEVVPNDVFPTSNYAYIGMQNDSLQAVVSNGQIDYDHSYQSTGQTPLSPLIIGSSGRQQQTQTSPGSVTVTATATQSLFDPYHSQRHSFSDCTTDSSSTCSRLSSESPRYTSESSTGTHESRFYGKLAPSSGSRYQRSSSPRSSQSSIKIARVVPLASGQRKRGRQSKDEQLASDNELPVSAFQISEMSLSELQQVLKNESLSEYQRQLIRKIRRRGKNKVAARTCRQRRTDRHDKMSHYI

[2] = Luminescence Cell-Based Dose Confirmation HTS to Identify Activators of 5'UTR Stem-Loop Driven Alpha-Synuclein mRNA Translation in H4 Neuroglioblastoma Cells. [Related pubchem assays: 1829 (Project Summary), 1814 (Primary HTS)]; assay type: functional
H4 = experiment: Luminescence Cell-Based Dose Response HTS to Identify Activators of 5'UTR Stem-Loop Driven Prion Protein mRNA Translation in H4 Neuroglioblastoma Cells. [Related pubchem assays: 1829 (Project Summary), 1814 (Primary HTS)]; assay type: functional; settings: Homo sapiens
[3] = Luminescence Cell-Based Dose Response HTS to Identify Activators of Luciferase Translation or Activity in H4 […] Cells. [Related pubchem assays: 1829 (Project Summary), 1814 (Primary HTS)]; assay type: functional
[4] = target: T4, Ubiquitin-conjugating enzyme E2 N (Homo sapiens, UniProt P61088); assay type: functional;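 further: Dose-response confirmation in a TR-FRET assay detecting UBC13-driven polyubiquitin chain formation, inhibition measured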
T4 sequence (P61088 whole entry): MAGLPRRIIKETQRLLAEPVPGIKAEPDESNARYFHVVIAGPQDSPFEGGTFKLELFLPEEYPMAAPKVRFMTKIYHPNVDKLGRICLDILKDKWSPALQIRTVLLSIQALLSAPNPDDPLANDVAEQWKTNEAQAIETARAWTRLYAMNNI

BJ [5] = experiment: cytotoxicity toward BJ-TERT fibroblasts, dose response, cell-based, RAS-independent, luminescence (AID 1933); assay type: functional; settings: Homo sapiens
BJ [6] = experiment: cytotoxicity toward BJ-TERT-LT-ST fibroblasts, dose response, cell-based, RAS-independent, luminescence (AID 1935); assay type: functional; settings: Homo sapiens;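 further: BJ fibroblasts immortalized with TERT plus LT and ST oncogenes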
BJ [7] = experiment: cells; assay type: functional, cell-based; settings: Homo sapiens
[8] = microbe, parasite or virus in culture; assay type: functional; settings: Mycobacterium tuberculosis
[9] = cytotoxicity toward DRD oncogenic fibroblasts, dose response, cell-based, non-viral oncogenic, luminescence (AID 1934); assay type: functional; settings: Homo sapiens
[10] = Luminescence Cell-Based Dose Retest to Confirm Inhibitors of Cancer Stem Cells. [Related pubchem assays (depositor defined):AID2717, AID2721]; assay type: functional; settings: Homo sapiens
[11] = target: FAD-linked sulfhydryl oxidase ALR (Homo sapiens, UniProt P55789); experiment: inhibitors of human ALR sulfhydryl oxidase, dose response, biochemical, H2O2 detection, luminescence, cherry-pick (AID 493248)
FAD-linked sulfhydryl oxidase ALR, sequence (P55789 whole entry): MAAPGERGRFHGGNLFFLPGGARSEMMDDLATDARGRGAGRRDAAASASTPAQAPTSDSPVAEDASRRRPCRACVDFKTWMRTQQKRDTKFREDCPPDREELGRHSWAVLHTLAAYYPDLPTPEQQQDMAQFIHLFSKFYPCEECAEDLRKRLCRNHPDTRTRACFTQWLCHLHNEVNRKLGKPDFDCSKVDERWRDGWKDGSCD

Leucine aminopeptidase = target: T5, Leucine aminopeptidase (Plasmodium falciparum 3D7, UniProt Q8IL11); experiment: P. falciparum M17LAP inhibitors, primary screen, biochemical, fluorogenic H-Leu-NHMec substrate, 1536-well (AID 1619); assay type: functional
T5 sequence (Q8IL11 whole entry): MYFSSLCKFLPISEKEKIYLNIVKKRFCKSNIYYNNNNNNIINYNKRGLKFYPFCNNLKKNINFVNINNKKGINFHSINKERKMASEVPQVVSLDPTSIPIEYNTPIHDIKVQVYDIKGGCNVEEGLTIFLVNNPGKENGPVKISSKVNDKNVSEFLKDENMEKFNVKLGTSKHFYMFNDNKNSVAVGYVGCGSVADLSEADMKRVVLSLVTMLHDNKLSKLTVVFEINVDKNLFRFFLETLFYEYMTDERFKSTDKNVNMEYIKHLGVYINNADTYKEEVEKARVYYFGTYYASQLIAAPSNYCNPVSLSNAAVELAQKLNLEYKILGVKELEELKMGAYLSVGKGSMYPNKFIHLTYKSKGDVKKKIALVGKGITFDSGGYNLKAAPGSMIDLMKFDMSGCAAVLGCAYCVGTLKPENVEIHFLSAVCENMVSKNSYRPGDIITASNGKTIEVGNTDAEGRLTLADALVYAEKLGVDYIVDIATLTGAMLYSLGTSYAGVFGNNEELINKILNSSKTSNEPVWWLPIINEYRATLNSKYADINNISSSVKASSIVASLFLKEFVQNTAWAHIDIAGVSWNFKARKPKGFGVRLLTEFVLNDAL

[12] = Shn3 3'UTR reporter inhibitors, dose response, cell-based, Clone20 osteoblasts, firefly luciferase, cherry-picked (AID 624132); assay type: functional;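 further: firefly luciferase luminescence from reporter carrying the Shn3 3'UTR in osteoblasts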
H9c2 = experiment: cells; assay type: functional, cell-based; settings: Rattus norvegicus, H9c2, Myocardium;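 further: confirmatory concentration-response retest of ultra-high-throughput screening hits for modulation of myocardial damage; cell death induced by hydrogen peroxide oxidative stress; compound pretreatment for 60 min then peroxide exposure for 2 h; potency is for protecting the cells against peroxide damage rather than for killing them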
cells = assay type: functional
[13] = ZM109 Env clade C HIV-1 fusion inhibitors, dose response, HeLa effector, CEM target cells, luciferase, cherry-pick (AID 652058); assay type: functional, cell-based
[14] = inhibitors of clade B AD8 Env fusion, dose response, cell-based, cherry-pick (AID 652062); assay type: functional;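 further: luciferase signal from cell-cell fusion driven by HIV-1 clade B AD8 Env; potency is for inhibitors of fusion seen as a drop in luminescence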
[15] = inhibitors of HIV Env-driven cell fusion, dose response, cherry-pick (AID 652057); assay type: functional, cell-based

Oc1ccc(O)c(Cc2nc3ccccc3s2)c1
AC50 [1]: 33.1 µM (active) | EC50 (Protein RecA): > 380 µM (inactive)

O=C(CSc1nnnn1C1CCCCC1)Nc1cccc(NC(=O)c2ccco2)c1
IC50 (Protein skinhead-1): > 100 µM (inactive)

Cc1cnc(C(=O)Nc2ccc(OC(F)(F)F)cc2)cn1
EC50 [2]: 13.9 µM (active) | EC50 (H4): 98.1 µM (active) | EC50 [3]: 17.5 µM (active)

Cc1cc(N2CCN(C)CC2)nc2ccc(NC(=S)N3CCN(c4cccc(Cl)c4)CC3)cc12
IC50 [4]: > 20 µM (inactive)

COc1ccc(NC2=C(Cl)C(=O)N(CCc3ccccc3)C2=O)c(OC)c1
EC50 [2]: 5.35 µM (active) | EC50 (H4): 33.2 µM (active) | EC50 [3]: 8.34 µM (active)

CN(Cc1ccc(Cl)s1)C(=O)CCl
AC50 [1]: 50.5 µM (active) | EC50 (BJ [5]): 5.73 µM (active) | EC50 (BJ [6]): > 150 µM (inconclusive) | EC50 (Protein RecA): 8.93 µM (active) | EC50 (BJ [7]): > 150 µM (inconclusive) | CC50 [8]: 11.7 µM (active) | EC50 [9]: 27.6 µM (active)

Cc1ccc(NC(=O)C2=C(O)CCn3c2nc2ccccc23)cc1
EC50 [2]: > 120 µM (not active) | EC50 (H4): > 60 µM (not active) | EC50 [3]: 12.5 µM (active)

CCn1ccnc1CN(C)Cc1nc(-c2ccc3c(c2)OCO3)no1
EC50 [2]: 6.38 µM (active) | EC50 (H4): 21.4 µM (active) | EC50 [3]: 12.5 µM (active)

CCOC(=O)c1[nH]c(C)c(C(=O)Nc2ccc(C)c(Cl)c2)c1C
EC50 [2]: > 120 µM (not active) | EC50 (H4): > 120 µM (not active) | EC50 [3]: 13.3 µM (active)

COc1ccccc1CNC(=O)c1ccc2c(=O)n(CCCN3CCCC3=O)c(=S)[nH]c2c1
IC50 [4]: > 20 µM (inactive)

O=C(/C=C/Nc1ccc(F)c(F)c1)c1cccs1
IC50 (Protein skinhead-1): 18.2 µM (active)

CN(CC(=O)Nc1nc2ccccc2s1)S(=O)(=O)c1ccc(Cl)cc1
IC50 (Protein skinhead-1): > 100 µM (inactive)

O=C1N=C(Nc2ccccc2)S/C1=C\c1cccn1-c1ccccc1
EC50 [2]: > 120 µM (not active) | EC50 (H4): > 120 µM (not active) | EC50 [3]: 32.5 µM (active)

O=C(Nc1ccc(Cl)c(Cl)c1)Nc1ccccc1NS(=O)(=O)c1cccs1
AC50 [10]: 7.6 µM (active) | AC50 [1]: 4.19 µM (active) | EC50 (Protein RecA): 29.1 µM (active)

O=C(NCCCN1CCCC1)c1ccc2c(c1)N(Cc1ccccc1)CCS2
IC50 [4]: > 20 µM (inactive) | AC50 [11]: 0.022 µM (active)

Cc1ccc(Nc2nc(-c3cccs3)cs2)nc1
IC50 (Protein skinhead-1): 54.6 µM (inactive)

N#CC1=C(N)Oc2[nH]nc(-c3ccc(F)cc3)c2C1c1cccnc1 (centres undefined)
IC50 (Leucine aminopeptidase): 61.2 µM (active) | AC50 [1]: 7.8 µM (active) | EC50 (Protein RecA): 1.63 µM (active)

CN(C(=O)c1ccco1)c1nc(-c2ccccc2)cs1
IC50 (Protein skinhead-1): 100 µM (inactive)

Cc1ccccc1-n1c(SCC(=O)O)nc2sc3c(c2c1=O)CCCC3
IC50 (Protein skinhead-1): > 100 µM (inactive)

COc1ccc(C(O)c2nc(-c3cccc(F)c3)cs2)cc1 (centres undefined)
AC50 [12]: 41.9 µM (active)

O=C(N/N=C/c1ccccn1)c1cccc([N+](=O)[O-])c1
IC50 (H9c2): > 79 µM (inactive) | IC50 (cells): 22.2 µM (active)

C[C@H]1CN([C@@H](C)CO)C(=O)c2ccccc2-c2ccccc2CO[C@@H]1CN(C)C(=O)CCC(F)(F)F
AC50 [13]: 1.48 µM (active) | AC50 [14]: 2.55 µM (active) | AC50 [15]: 1.1 µM (active)

COc1ccccc1NC(=O)N[C@H]1C=C[C@@H](CC(=O)N[C@H](C)c2ccccc2)O[C@H]1CO
AC50 [13]: 3.38 µM (active) | AC50 [14]: 11 µM (active) | AC50 [15]: 4.72 µM (active)

Cc1ccc(/N=C/c2c(O)[nH]c3ccccc23)c([N+](=O)[O-])c1
EC50 (H4): 22.3 µM (inconclusive)

CCSc1ncc(/C=N/Nc2ccccc2)n1C
IC50 (Protein skinhead-1): > 100 µM (inactive)
